Experimental data as given in article PMC12152147, “DDB1 engagement defines the selectivity of S656 analogs for cyclin K degradation over CDK inhibition” (EMBO Reports, 2025).
“And” between values parts separate entries of the source, which are not always exact repeats. Identical values can stand only once.

Key:
CD34+ cord blood cells = assay: Chemical screen / dose response on CD34+ cord blood cells; format: cell-based, Human
Protocol: Fresh umbilical cord blood units were collected from consenting donors according to ethically approved procedures at St Justine, Maisonneuve-Rosemont (Montréal, QC, Canada) and Charles Le Moyne (Longueuil, QC, Canada, approval reference number AA-HCLM-16-014) Hospitals. Human CD34^+ cells were isolated using the EasySep Human Cord Blood CD34^+ Selection Kit through positive magnetic selection. Chemical screen was performed as described in primary AML with the following modifications: 2000 cord blood cells were seeded, CB media contains StemSpan-ACF supplemented with 100 ng/mL SCF, 100 ng/mL FLT3L, 50 ng/mL TPO, 10 μg/mL LDL, 1× glutamax, gentamicin (50 μg/mL), ciprofloxacin (10 μg/mL), SR1 (500 nmol/L) and UM729 (500 nmol/L).
Dose-response assays in primary AML specimens were performed as in chemical screen (see above) with the exception that compounds were tested in serial dilution (8 dilutions, 1:4, 10 μM down to 0.5 nM). Dose-response assays in OCI-AML5 cell line were conducted similarly with the following modifications: 300 cells per well were seeded in 50 μL of cell line media and cell viability was evaluated after 4 days in culture.

[1] = test system: BRCA2, ATR and BLM mRNA expression; assay: qPCR of DDR transcripts in OCI-AML5; format: cell-based, H. sapiens; conditions: OCI-AML5, 4 h; S656 5 μM, THZ531 200 nM; normalized to HPRT, DMSO = 1
Protocol: RNA was harvested in Trizol (ThermoFisher) and isolated according to manufacturer’s protocol and reverse transcribed using MMLV reverse transcriptase and random primers (ThermoFisher). Quantitative PCR was performed using validated assays designed for the Universal Probe Library (Roche) on the Viia7 (Applied Biosystems). qPCR primer sequences are available in Table EV2. Relative quantity of target is normalized to HPRT and compared to normalized expression of control cells.

[2] = target: T1, OCI-AML5 total protein extracts (cyclin K, CDKs, DDB1) (Homo sapiens, UniProt P45844); assay: Pull-down with immobilized probes and quantitative mass spectrometry; format: binding, H. sapiens; conditions: protein ABCG1 (P45844)
T1 construct: endogenous in cells; host or cells: OCI-AML5 total protein extract
Protocol: (§1) Probe compounds were immobilized through their terminal amine on NHS-sepharose beads as previously described (Médard et al, [2015]). The prepared beads were then washed in PBS and equilibrated in Triton X-100 buffer. For each replicate, 1–2 mg of total proteins (2 mg/ml) were incubated end-over-end with 25 μl of beads overnight at 4 °C in low protein binding microtubes (Sarstedt). The samples were then washed twice in Triton X-100 buffer, transferred to new microtubes and further washed six times in PBS including another microtube transfer at the last wash. Beads pellets were resuspended in 50 mM ammonium bicarbonate and subjected to reduction, alkylation and tryptic digest as described above. Peptides were separated on an home-made reversed-phase column (150-μm i.d. by 200 mm) with a 56-min gradient from 10 to 30% ACN-0.2% FA and a 600-nl/min flow rate on a Easy nLC-1200 connected to a Exploris 480 (ThermoFisher Scientific, San Jose, CA). Each full MS spectrum acquired at a resolution of 120,000 was followed by tandem-MS (MS-MS) spectra acquisition on the most abundant multiply charged precursor ions for 3 s. Tandem-MS experiments were performed using higher energy collision dissociation (HCD) at a collision energy of 34%. The data were processed using PEAKS X Pro (Bioinformatics Solutions, Waterloo, ON) and a Uniprot human database (20366 entries). Mass tolerances on precursor and fragment ions were 10 ppm and 0.01 Da, respectively. Fixed modification was carbamidomethyl (C). Variable selected posttranslational modifications were acetylation (N-ter), oxidation (M), deamidation (NQ), phosphorylation (STY). The data were visualized with Scaffold 5.0 (protein threshold, 99%, with at least 2 peptides identified and a false-discovery rate [FDR] of 1% for peptides).
(§2) Differential Enrichment analysis of Proteomics data (DEP) package (Zhang et al, [2018]) in R was used to analyze the data (excluding proteins identified based on a single peptide), including data filtering, normalization, imputation of missing values and statistical testing of differentially expressed proteins.

[3] = target: T2, OCI-AML5 total protein extracts (cyclin K, CDKs, DDB1) (Homo sapiens, UniProt O75909); assay: as above; format: binding, H. sapiens; conditions: OCI-AML5 total protein extracts; DEP analysis
T2 construct: endogenous in cells; host or cells: OCI-AML5 total protein extract
Protocol: as §1, §2

[4] = target: T3, OCI-AML5 total protein extracts (cyclin K, CDKs, DDB1) (Homo sapiens, UniProt P06493); assay: as above; format: binding, H. sapiens; conditions: OCI-AML5 total protein extracts; DEP analysis
T3 construct: endogenous in cells; host or cells: OCI-AML5 total protein extract
Protocol: as §1, §2

[5] = target: T4, OCI-AML5 total protein extracts (cyclin K, CDKs, DDB1) (Homo sapiens, UniProt P21439); assay: as above; format: binding, H. sapiens; conditions: protein ABCB4 (P21439)
T4 construct: endogenous in cells; host or cells: OCI-AML5 total protein extract
Protocol: as §1, §2

[6] = target: T5, OCI-AML5 total protein extracts (cyclin K, CDKs, DDB1) (Homo sapiens, UniProt P50750); assay: as above; format: binding, H. sapiens; conditions: OCI-AML5 total protein extracts; DEP analysis
T5 construct: endogenous in cells; host or cells: OCI-AML5 total protein extract
Protocol: as §1, §2

[7] = target: T6, OCI-AML5 total protein extracts (cyclin K, CDKs, DDB1) (Homo sapiens, UniProt Q16531); assay: as above; format: binding, H. sapiens; conditions: OCI-AML5 total protein extracts
T6 construct: endogenous in cells; host or cells: OCI-AML5 total protein extract
Protocol: as §1, §2

[8] = target: T7, OCI-AML5 total protein extracts (cyclin K, CDKs, DDB1) (Homo sapiens, UniProt Q96IU4); assay: as above; format: binding, H. sapiens; conditions: protein ABHD14B (Q96IU4)
T7 construct: endogenous in cells; host or cells: OCI-AML5 total protein extract
T7 sequence (Q96IU4 1-210): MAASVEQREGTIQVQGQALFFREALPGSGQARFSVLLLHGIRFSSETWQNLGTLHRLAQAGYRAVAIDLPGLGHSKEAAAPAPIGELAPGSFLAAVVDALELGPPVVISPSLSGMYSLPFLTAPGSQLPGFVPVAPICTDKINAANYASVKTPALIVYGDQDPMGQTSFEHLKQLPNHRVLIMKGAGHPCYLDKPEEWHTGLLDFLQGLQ
Protocol: as §1, §2

[9] = centered abundance, competition (compe)
[10] = probe vs probe with competition
[11] = probe with competition (compe) vs UOM-005839
[12] = probe with competition (compe) vs beads

T4 sequence (P21439 whole entry): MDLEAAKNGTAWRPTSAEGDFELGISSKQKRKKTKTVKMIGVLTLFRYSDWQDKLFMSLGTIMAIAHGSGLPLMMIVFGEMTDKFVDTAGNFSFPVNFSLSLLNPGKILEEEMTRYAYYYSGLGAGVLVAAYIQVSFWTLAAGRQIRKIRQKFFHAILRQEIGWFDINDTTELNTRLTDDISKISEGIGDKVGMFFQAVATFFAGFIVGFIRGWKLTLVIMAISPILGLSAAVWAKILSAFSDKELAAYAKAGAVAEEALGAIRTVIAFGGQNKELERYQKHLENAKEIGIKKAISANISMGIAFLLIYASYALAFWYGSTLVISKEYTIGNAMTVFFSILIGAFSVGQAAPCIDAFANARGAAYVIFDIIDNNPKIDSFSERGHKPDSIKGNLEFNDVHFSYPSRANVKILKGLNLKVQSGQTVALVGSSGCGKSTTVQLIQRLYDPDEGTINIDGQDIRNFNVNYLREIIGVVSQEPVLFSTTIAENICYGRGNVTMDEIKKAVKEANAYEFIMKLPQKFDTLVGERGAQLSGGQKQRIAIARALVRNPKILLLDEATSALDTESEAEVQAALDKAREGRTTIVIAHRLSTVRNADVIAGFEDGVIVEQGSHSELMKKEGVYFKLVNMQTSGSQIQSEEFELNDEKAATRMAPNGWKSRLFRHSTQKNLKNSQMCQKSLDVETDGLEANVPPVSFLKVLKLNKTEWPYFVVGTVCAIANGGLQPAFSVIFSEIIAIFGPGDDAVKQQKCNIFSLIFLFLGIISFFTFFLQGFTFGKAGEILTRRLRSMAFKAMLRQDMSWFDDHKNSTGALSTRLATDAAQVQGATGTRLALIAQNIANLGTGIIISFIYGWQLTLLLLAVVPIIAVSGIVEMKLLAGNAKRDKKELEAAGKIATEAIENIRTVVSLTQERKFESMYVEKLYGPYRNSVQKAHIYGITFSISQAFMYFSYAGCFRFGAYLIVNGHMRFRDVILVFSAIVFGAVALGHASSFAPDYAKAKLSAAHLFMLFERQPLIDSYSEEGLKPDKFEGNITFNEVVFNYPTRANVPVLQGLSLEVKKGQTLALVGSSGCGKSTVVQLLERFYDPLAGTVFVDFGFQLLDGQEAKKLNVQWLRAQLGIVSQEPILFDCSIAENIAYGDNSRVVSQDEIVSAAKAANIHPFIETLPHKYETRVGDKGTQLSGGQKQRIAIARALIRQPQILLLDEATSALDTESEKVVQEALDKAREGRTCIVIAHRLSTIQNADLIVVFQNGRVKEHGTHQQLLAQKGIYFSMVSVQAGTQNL
T2 sequence (O75909 whole entry): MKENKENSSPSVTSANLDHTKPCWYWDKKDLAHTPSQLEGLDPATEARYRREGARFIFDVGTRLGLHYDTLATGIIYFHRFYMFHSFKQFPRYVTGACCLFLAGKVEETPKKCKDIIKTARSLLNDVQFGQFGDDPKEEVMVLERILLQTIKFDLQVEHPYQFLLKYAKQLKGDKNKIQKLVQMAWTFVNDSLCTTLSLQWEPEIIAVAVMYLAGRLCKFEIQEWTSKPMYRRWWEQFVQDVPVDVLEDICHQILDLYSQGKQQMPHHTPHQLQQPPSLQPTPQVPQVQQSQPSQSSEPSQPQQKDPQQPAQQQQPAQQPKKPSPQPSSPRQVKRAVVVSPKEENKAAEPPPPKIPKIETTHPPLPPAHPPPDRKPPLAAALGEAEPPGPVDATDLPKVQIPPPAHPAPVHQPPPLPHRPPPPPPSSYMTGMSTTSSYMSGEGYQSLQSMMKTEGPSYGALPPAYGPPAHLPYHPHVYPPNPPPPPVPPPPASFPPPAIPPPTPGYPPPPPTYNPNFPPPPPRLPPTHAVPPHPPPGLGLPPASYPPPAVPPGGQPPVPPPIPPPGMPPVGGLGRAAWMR
T3 sequence (P06493 whole entry): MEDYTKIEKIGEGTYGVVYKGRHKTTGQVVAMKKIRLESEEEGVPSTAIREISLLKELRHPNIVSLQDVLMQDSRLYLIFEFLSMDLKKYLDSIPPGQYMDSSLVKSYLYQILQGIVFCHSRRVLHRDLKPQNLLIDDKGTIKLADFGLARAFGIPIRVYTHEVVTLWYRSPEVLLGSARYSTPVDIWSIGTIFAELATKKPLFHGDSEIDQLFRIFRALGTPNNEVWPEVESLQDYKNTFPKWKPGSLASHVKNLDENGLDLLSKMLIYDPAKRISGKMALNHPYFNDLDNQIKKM
T5 sequence (P50750 whole entry): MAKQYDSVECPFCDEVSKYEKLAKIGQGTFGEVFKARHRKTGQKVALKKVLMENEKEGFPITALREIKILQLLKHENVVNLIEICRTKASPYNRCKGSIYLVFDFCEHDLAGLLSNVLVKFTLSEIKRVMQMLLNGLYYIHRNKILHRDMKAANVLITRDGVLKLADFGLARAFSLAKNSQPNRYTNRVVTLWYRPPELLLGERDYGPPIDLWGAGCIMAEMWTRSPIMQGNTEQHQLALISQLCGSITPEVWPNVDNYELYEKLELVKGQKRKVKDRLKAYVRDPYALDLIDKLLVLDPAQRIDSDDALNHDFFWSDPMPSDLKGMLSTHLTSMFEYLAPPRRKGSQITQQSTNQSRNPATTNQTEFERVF
T6 sequence (Q16531 whole entry): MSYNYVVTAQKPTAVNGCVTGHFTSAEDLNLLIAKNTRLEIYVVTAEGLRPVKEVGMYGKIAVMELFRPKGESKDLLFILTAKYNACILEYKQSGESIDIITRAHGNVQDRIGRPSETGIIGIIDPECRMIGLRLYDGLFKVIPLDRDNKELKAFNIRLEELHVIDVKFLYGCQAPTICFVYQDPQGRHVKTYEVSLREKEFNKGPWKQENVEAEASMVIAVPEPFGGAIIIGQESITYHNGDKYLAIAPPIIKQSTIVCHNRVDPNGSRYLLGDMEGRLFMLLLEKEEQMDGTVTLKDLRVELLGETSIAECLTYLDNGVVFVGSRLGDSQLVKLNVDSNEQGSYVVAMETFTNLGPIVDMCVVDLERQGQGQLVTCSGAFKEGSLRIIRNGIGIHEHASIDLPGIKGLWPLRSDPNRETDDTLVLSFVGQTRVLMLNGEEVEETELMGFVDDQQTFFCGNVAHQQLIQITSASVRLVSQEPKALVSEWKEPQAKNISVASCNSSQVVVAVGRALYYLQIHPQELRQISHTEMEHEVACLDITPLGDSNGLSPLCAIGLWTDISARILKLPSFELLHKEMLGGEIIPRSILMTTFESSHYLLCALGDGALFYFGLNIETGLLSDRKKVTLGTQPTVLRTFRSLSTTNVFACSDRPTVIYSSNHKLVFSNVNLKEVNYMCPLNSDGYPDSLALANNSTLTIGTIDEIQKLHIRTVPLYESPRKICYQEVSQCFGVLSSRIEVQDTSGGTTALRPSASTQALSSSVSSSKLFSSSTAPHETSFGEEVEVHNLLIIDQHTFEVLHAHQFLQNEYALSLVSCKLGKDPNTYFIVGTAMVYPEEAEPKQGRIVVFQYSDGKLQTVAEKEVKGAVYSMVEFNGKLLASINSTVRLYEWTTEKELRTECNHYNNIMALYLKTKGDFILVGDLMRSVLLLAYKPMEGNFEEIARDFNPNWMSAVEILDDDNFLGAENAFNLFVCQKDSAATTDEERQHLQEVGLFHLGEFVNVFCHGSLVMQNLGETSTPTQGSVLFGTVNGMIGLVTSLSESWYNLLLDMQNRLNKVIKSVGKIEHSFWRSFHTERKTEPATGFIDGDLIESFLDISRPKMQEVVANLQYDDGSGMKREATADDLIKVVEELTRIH

For `CN(C)c1ccc(CC(=O)Nc2ncc(SCc3cccnc3)s2)cc1` [S656], the IC50 (CD34+ cord blood cells; Homo sapiens, dose-response, read-out: IC50 on purified CD34+ cells from cord blood) was 1310 nM, the “activity against CD34+ cord blood cells” value (CD34+ cord blood cells; discovery screen, 1 μM, 6 days) was “low activity” and the “ATR mRNA” value [1] was 0.3 and 0.2683 and 0.3666. The “BRCA2 mRNA” value [1] was 0.127 and 0.1345 and 0.2247.

Molecule `CN(CCOCCOCCN)c1ccc(CC(=O)Nc2ncc(SCc3cccnc3)s2)cc1` [UOM-005790] has a UOM-005790_centered ([2]; centered abundance) of 2.21, a UOM-005790compe_centered [2, 9] of 1.7 and a UOM-005790_vs_Beads_ratio ([2]; immobilized probe vs beads) of 4.82. For the same molecule, the UOM-005790_vs_UOM-005839_ratio ([2]; probe vs probe UOM-005839) was 3.51, the UOM-005790_vs_UOM-005790compe_ratio [2, 10] was 0.512 and the UOM-005790compe_vs_UOM-005839_ratio [2, 11] was 3. The UOM-005790compe_vs_Beads_ratio [2, 12] was 4.31, the “pull-down enrichment of Cyclin K” value [3] was 2.779 and 2.982 and 2.894 and the “pull-down enrichment of CDK1” value [4] was 2.811 and 2.814 and 2.979. The UOM-005790_centered ([5]; centered abundance) was -2.58, the UOM-005790compe_centered [5, 9] was -1.22 and the UOM-005790_vs_Beads_ratio ([5]; immobilized probe vs beads) was -5.48. It also gave a UOM-005790_vs_UOM-005839_ratio ([5]; probe vs probe UOM-005839) of -3.49, a UOM-005790_vs_UOM-005790compe_ratio [5, 10] of -1.36 and a UOM-005790compe_vs_UOM-005839_ratio [5, 11] of -2.12. The UOM-005790compe_vs_Beads_ratio [5, 12] was -4.12, the “pull-down enrichment of CDK9” value [6] was 2.785 and 2.837 and 2.887 and the “pull-down enrichment of DDB1” value [7] was “not enriched”. The UOM-005790_centered ([8]; centered abundance) was 1.19, the UOM-005790compe_centered [8, 9] was 1.42 and the UOM-005790_vs_Beads_ratio ([8]; immobilized probe vs beads) was 4.31. For the same molecule, the UOM-005790_vs_UOM-005839_ratio ([8]; probe vs probe UOM-005839) was 0.69, the UOM-005790_vs_UOM-005790compe_ratio [8, 10] was -0.227 and the UOM-005790compe_vs_UOM-005839_ratio [8, 11] was 0.916. It also gave a UOM-005790compe_vs_Beads_ratio [8, 12] of 4.54.
